Test results from ChEMBL document CHEMBL1137549, “1-Aminocyclopentane-1,2,4-tricarboxylic acids screening on glutamatergic and serotonergic systems” (Bioorg Med Chem, 2007).
Calls of active or inactive are those of the source. The calls are words filed in the database; no cut-off is given here.

Experiments:
[1] = biological target: 5-hydroxytryptamine receptor 2A (Rattus norvegicus, UniProt P14842); assay: Displacement of [3H]ketanserin from 5HT2A receptor in rat cortex membrane; format: cell membranes
[2] = biological target: Metabotropic glutamate receptor 2 (Homo sapiens) (UniProt Q14416); assay: Antagonist activity at mGluR2 expressed in CHO cells assessed as inhibition of forskolin stimulated cAMP accumulation at 10 uM; format: functional, cell-based
[3] = biological target: Metabotropic glutamate receptor 2 (Homo sapiens) (UniProt Q14416); assay: Agonist activity at mGluR2 expressed in CHO cells assessed as decrease in cAMP accumulation at 10 uM; format: functional, cell-based; parameters: scale not given: the % may be the effect or the level left
[4] = biological target: T1, 5-hydroxytryptamine receptor 1A (Rattus norvegicus, UniProt P19327); assay: Displacement of [3H]8-OH-DPAT from 5HT1A receptor in rat cortex membrane; format: cell membranes
T1 sequence (P19327 whole entry): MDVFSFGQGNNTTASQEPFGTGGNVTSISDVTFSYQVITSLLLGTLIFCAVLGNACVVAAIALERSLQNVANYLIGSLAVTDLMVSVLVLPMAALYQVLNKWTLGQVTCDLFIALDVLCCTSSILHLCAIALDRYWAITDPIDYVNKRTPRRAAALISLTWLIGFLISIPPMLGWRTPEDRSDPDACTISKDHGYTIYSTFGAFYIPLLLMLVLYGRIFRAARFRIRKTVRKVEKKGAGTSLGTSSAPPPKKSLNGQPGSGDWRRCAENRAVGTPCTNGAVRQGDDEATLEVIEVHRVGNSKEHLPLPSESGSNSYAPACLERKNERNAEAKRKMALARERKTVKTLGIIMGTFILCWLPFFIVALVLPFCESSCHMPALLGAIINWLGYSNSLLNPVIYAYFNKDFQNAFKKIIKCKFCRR

[5] = biological target: Sodium-dependent serotonin transporter (Homo sapiens, UniProt P31645); format: cell membranes
[6] = biological target: Metabotropic glutamate receptor 6 (Homo sapiens) (UniProt O15303); assay: Agonist activity at mGluR6 expressed in CHO cells assessed as decrease in cAMP accumulation at 10 uM; format: functional, cell-based; parameters: scale not given: the % may be the effect or the level left
[7] = biological target: Metabotropic glutamate receptor 1 (Homo sapiens) (UniProt Q13255); assay: Antagonist activity at mGluR1 expressed in CHO cells assessed as inhibition of glutamate stimulated phosphatidyl inositol hydrolysis at 10 uM; format: functional, cell-based
[8] = biological target: Metabotropic glutamate receptor 6 (Homo sapiens) (UniProt O15303); assay: Antagonist activity at mGluR6 expressed in CHO cells assessed as inhibition of forskolin stimulated cAMP accumulation at 10 uM; format: functional, cell-based
[9] = biological target: Metabotropic glutamate receptor 6 (Homo sapiens) (UniProt O15303); assay: Antagonist activity at mGluR6 expressed in CHO cells assessed as inhibition of AP4-induced cAMP accumulation at 10 uM; format: functional, cell-based
[10] = biological target: Metabotropic glutamate receptor 1 (Homo sapiens) (UniProt Q13255); assay: Agonist activity at mGluR1 expressed in CHO cells assessed as stimulation of phosphatidyl inositol hydrolysis at 10 uM; format: functional, cell-based
[11] = biological target: Metabotropic glutamate receptor 2 (Homo sapiens) (UniProt Q14416); assay: Antagonist activity at mGluR2 expressed in CHO cells assessed as inhibition of glutamate-induced cAMP accumulation at 10 uM; format: functional, cell-based

5-hydroxytryptamine receptor 2A, sequence (P14842 whole entry): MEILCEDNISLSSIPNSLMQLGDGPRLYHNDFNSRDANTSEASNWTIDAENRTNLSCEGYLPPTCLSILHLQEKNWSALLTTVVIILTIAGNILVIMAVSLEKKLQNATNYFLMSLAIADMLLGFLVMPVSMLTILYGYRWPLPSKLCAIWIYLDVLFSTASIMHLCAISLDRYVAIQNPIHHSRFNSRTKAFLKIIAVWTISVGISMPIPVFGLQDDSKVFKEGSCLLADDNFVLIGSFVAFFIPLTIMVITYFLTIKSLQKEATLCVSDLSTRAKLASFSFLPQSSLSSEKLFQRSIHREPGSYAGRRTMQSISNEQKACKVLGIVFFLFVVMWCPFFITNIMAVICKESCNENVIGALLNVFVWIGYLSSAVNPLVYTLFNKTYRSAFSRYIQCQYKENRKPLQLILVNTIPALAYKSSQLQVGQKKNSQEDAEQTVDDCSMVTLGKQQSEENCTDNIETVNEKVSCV
Metabotropic glutamate receptor 1 (Homo sapiens), sequence (Q13255 19-1194 limits assumed): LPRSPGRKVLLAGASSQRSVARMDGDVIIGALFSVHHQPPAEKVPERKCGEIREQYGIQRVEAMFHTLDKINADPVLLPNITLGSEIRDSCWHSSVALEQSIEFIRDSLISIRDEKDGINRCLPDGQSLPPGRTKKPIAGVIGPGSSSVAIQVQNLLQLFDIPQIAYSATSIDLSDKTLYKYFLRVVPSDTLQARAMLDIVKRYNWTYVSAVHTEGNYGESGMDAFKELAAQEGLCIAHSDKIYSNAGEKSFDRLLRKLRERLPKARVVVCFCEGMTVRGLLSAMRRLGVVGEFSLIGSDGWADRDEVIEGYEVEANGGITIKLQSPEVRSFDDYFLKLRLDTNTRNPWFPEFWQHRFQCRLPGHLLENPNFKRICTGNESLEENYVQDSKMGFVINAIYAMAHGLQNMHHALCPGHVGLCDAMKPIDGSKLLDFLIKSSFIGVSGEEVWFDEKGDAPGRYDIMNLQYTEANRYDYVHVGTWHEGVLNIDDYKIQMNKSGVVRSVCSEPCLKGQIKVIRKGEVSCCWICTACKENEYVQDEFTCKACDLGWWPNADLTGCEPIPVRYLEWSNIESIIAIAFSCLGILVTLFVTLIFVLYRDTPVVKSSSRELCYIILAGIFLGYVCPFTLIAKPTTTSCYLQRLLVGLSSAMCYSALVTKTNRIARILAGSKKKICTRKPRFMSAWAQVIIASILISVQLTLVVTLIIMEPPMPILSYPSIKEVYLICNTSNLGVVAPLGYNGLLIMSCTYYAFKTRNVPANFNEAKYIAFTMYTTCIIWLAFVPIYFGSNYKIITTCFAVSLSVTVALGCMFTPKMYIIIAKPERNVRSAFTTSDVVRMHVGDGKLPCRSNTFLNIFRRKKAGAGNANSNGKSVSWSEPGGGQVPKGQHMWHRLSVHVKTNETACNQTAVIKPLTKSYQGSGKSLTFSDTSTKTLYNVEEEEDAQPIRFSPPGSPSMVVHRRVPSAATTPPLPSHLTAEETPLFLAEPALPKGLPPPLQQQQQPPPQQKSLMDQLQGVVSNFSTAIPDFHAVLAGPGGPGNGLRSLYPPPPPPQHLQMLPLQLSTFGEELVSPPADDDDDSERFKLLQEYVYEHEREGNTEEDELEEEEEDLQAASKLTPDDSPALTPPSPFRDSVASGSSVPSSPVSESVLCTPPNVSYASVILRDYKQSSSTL
Metabotropic glutamate receptor 2 (Homo sapiens), sequence (Q14416 19-872 limits assumed): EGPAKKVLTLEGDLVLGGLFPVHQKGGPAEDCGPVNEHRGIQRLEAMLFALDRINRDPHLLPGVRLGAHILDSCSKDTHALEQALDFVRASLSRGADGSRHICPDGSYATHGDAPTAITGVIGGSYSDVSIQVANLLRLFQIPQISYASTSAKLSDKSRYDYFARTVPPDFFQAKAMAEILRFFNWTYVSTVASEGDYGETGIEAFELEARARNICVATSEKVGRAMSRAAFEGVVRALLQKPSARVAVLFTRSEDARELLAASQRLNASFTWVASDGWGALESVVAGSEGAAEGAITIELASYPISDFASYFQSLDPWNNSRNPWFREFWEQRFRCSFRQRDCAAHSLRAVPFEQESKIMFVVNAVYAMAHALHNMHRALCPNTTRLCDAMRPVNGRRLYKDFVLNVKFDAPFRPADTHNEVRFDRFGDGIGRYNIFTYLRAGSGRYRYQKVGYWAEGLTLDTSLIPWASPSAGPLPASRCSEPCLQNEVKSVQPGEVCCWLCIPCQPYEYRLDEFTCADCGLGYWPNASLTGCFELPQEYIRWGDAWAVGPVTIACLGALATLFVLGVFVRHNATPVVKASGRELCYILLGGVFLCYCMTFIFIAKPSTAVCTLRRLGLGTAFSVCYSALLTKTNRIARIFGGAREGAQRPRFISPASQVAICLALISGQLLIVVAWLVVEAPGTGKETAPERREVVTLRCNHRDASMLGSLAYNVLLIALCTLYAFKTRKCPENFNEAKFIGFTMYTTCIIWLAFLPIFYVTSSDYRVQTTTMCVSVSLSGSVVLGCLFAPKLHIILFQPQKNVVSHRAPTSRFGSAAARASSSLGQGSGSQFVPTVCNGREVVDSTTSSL
Metabotropic glutamate receptor 6 (Homo sapiens), sequence (O15303 whole entry): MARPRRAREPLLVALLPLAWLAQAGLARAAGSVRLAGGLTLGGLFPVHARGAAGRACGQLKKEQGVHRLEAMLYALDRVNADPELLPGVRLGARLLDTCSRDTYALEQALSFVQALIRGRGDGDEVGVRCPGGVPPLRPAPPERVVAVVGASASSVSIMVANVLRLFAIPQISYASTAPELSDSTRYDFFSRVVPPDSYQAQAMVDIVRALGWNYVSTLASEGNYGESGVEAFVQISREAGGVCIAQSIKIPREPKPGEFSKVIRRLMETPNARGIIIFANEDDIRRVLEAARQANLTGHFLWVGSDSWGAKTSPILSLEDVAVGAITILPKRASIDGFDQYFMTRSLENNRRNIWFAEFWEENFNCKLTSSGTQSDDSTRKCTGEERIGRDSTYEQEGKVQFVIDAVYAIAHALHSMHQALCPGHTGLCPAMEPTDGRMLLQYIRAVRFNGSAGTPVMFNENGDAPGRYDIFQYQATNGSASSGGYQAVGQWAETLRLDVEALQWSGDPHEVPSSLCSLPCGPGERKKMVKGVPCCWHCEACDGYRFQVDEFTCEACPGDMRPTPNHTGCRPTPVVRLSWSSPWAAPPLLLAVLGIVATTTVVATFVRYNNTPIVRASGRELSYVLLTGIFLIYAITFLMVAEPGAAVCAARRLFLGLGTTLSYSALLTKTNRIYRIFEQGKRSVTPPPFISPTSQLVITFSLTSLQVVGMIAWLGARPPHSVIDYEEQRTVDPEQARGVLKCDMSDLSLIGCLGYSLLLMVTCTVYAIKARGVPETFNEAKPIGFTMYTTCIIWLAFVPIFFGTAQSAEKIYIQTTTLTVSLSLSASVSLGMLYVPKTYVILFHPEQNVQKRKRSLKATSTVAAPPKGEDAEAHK
Sodium-dependent serotonin transporter, sequence (P31645 whole entry): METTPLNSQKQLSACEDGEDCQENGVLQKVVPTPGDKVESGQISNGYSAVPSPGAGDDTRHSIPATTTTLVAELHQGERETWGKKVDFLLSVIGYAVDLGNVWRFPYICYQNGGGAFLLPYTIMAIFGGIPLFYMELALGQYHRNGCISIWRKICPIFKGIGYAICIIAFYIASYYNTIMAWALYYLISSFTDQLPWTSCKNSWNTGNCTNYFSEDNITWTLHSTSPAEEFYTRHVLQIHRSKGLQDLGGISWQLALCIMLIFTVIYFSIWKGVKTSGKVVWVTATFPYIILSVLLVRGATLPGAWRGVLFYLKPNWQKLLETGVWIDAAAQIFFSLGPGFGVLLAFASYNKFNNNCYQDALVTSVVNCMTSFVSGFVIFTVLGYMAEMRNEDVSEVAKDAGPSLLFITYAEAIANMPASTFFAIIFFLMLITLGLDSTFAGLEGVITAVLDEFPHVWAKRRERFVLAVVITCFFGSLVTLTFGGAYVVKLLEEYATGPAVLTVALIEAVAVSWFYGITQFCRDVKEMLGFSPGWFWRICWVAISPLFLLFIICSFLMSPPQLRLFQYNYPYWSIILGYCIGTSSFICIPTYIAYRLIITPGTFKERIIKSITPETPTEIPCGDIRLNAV

N[C@]1(C(=O)O)C[C@@H](C(=O)O)C[C@H]1C(=O)O
Ki [1]: > 50 µM
Activity [2]: inactive
Activity [3]: inactive
Ki [4]: > 50 µM
Ki [5]: 10 µM
Activity [6]: inactive
Activity [7]: inactive
Activity [8]: inactive
Activity [9]: inactive
Activity [10]: inactive
Activity [11]: inactive

N[C@@]1(C(=O)O)C[C@@H](C(=O)O)C[C@H]1C(=O)O
Ki [1]: > 50 µM
Activity [3]: 30%
Ki [4]: > 50 µM
Ki [5]: > 50 µM
Activity [6]: 30%
Activity [7]: inactive
Activity [9]: inactive
Activity [10]: inactive
Activity [11]: inactive

N[C@@]1(C(=O)O)C[C@H](C(=O)O)C[C@@H]1C(=O)O
Ki [1]: > 50 µM
Activity [2]: inactive
Activity [3]: inactive
Ki [4]: > 50 µM
Ki [5]: > 50 µM
Activity [6]: inactive
Activity [7]: inactive
Activity [8]: inactive
Activity [9]: inactive
Activity [10]: inactive
Activity [11]: inactive

N[C@]1(C(=O)O)C[C@H](C(=O)O)C[C@@H]1C(=O)O
Ki [1]: > 50 µM
Activity [2]: inactive
Activity [3]: inactive
Ki [4]: > 50 µM
Ki [5]: > 50 µM
Activity [6]: inactive
Activity [7]: inactive
Activity [8]: inactive
Activity [9]: inactive
Activity [10]: inactive
Activity [11]: inactive
